Reference: US12029739B2, “SHP2 inhibitor and use thereof” (KANAPH THERAPEUTICS INC., priority 2021, dated 2024)
Like-named read-outs stand apart in the source and are kept apart here.

Columns and labels:
[1] = system: phospho-ERK in MIA PaCa2 or H358 cells; test: Phospho-ERK assay (AlphaLisa); format: cell-based; conditions: 1.5 h
SHP2 (full length) = target: T1, SHP2 (full length) (Homo sapiens, UniProt Q06124); test: Phosphatase assay (PTPase assay) with DiFMUP substrate; format: biochemical; conditions: SHP2 activated with SHP2 activating peptide, DiFMUP 80 μM, 2 hours, fluorescence
T1 construct: SHP2 (full length, diluted to 100 pM final concentration in reaction buffer, BPS bioscience, US); purchased BPS bioscience, US
T1 sequence (Q06124 1-593): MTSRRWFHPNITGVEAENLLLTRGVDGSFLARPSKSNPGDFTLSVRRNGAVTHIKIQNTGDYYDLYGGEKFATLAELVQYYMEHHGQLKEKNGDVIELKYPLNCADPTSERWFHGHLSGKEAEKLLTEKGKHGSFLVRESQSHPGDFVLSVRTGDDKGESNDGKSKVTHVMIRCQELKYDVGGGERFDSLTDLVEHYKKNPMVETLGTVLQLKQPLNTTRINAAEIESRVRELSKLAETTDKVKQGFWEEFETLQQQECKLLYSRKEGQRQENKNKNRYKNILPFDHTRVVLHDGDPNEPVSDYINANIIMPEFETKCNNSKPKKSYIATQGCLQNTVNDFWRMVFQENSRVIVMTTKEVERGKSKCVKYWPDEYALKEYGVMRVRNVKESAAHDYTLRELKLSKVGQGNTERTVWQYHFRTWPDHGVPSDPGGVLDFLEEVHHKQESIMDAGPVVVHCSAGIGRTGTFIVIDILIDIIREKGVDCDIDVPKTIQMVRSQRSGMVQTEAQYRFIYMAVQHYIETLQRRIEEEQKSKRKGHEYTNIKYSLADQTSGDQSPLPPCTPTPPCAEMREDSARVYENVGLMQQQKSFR

[2] = MIA PaCa2 or H358 cells, compound incubated 1.5 hours, read-out: IC50 (p-ERK)

| SMILES | IC50 [1, 2] [nM] | IC50 (SHP2 (full length); read-out: IC50 (PTPase aS say)) [nM] | IC50 ([1]; read-out: IC50 (p-ERK, nM)) [nM] | IC50 (SHP2 (full length); IC50 (PTPase aS say, nM)) [nM] |
| --- | --- | --- | --- | --- |
| CC1(CN)CCN(c2cnc(Sc3cccc(S(=O)(=O)F)c3Cl)cn2)CC1 [Example 6, 3-((5-(4-(aminomethyl)-4-methylpiperidin-1-yl)pyrazin-2-yl)thio)-2-chlorobenzenesulfonyl fluoride] |  |  | 45 to 1500 | 3 to 100 |
| CC1(N)CCN(c2cnc(Sc3cccc(S(=O)(=O)F)c3Cl)cn2)CC1 [Example 7, 3-((5-(4-amino-4-methylpiperidin-1-yl)pyrazin-2-yl)thio)-2-chlorobenzenesulfonyl fluoride] |  |  | 45 to 1500 | 3 to 100 |
| Cn1c(N2CCC(C)(N)CC2)nc(N)c(Sc2ccc3nc[nH]c(=O)c3c2Cl)c1=O [Example 29, 6-((4-amino-2-(4-amino-4-methylpiperidin-1-yl)-1-methyl-6-oxo-1,6-dihydropyrimidin-5-yl)thio)-5-chloroquinazolin-4(3H)-one] | > 1500 | > 100 |  |  |
| Cn1c(N2CCCN(CCCN)CC2)nc(N)c(Sc2cccc(Cl)c2Cl)c1=O [Example 201, 6-amino-2-(4-(3-aminopropyl)-1,4-diazepan-1-yl)-5-((2,3-dichlorophenyl)thio)-3-methylpyrimidin-4(3H)-one] | > 1500 | > 100 |  |  |
| C[C@@H]1OCC2(CCN(c3cnc(Sc4ccc5c(c4Cl)C(=O)N(Cc4ccccc4)CC5)cn3)CC2)[C@@H]1N [Example 85, 7-((5-((3S,4S)-4-amino-3-methyl-2-oxa-8-azaspiro[4.5]decan-8-yl)pyrazin-2-yl)thio)-2-benzyl-8-chloro-3,4-dihydroisoquinolin-1(2H)-one] | > 1500 | 3 to 100 |  |  |
| CC1(CN)CCN(c2cnc(Sc3ccc4ncn(Cc5cccc(S(=O)(=O)F)c5)c(=O)c4c3Cl)cn2)CC1 [Example 16, 3-((6-((5-(4-(aminomethyl)-4-methylpiperidin-1-yl)pyrazin-2-yl)thio)-5-chloro-4-oxoquinazolin-3(4H)-yl)methyl)benzenesulfonyl fluoride] |  |  | 45 to 1500 | < 3 |
| COCCn1cnc2ccc(Sc3cnc(N4CCC5(CC4)Cc4ncsc4[C@H]5N)c(CO)n3)c(Cl)c2c1=O [Example 169, (S)-6-((5-(6-amino-4,6-dihydrospiro[yclopenta[d]thiazole-5,4′-piperidin]-1′-yl)-6-(hydroxymethyl)pyrazin-2-yl)thio)-5-chloro-3-(2-methoxyethyl)quinazolin-4(3H)-one] | < 45 | < 3 |  |  |
| CC(O)CCn1cnc2ccc(Sc3cnc(N4CCC5(CC4)Cc4ncccc4[C@H]5N)cn3)c(Cl)c2c1=O (stereo partly drawn) [Example 111, (6-((5-((S)-5-amino-5,7-dihydrospiro[yclopenta[b]pyridine]-6,4′-piperidin]-1′-yl)pyrazin-2-yl]thio)-5-chloro-3-(3-hydroxybutyl)quinazolin-4(3H)-one] | < 45 | < 3 |  |  |
| COCCn1cnc2ccc(Sc3ncc(N4CCC5(CC4)Cc4scnc4[C@H]5N)nc3N)c(Cl)c2c1=O [Example 167, (S)-6-((3-amino-5-(4-amino-4,6-dihydrospiro[cyclopenta[d]thiazole-5,4′-piperidin]-1′-yl)pyrazin-2-yl)thio)-5-chloro-3-(2-methoxyethyl)quinazolin-4(3H)-one] | 45 to 1500 | < 3 |  |  |
| C[C@@H]1OCC2(CCN(c3cnc(Sc4ccc5ncn(CCN(C)S(C)(=O)=O)c(=O)c5c4Cl)cn3)CC2)[C@@H]1N [Example 123, N-(2-(6-((5-((3S,4S)-4-amino-3-methyl-2-oxa-8-azaspiro[4,5]decan-8-yl)pyrazin-2-yl)thio)-5-chloro-4-oxoquinazolin-3(4H)-yl]ethyl)-N-methylmethanesulfonamide] | < 45 | < 3 |  |  |
| N[C@@H]1c2cccnc2CC12CCN(c1cnc(Sc3ccc4ncn(Cc5cccnc5)c(=O)c4c3Cl)cn1)CC2 [Example 105, (S)-6-((5-(5-amino-5,7-dihydrospiro[yclopenta[b]pyridine-6,4′-piperidin]-1′-yl)pyrazin-2-yl)thio)-5-chloro-(3-pyridin-3-ylmethyl)quinazolin-4(3H)-one] | < 45 | < 3 |  |  |
| C[C@@H]1OCC2(CCN(c3cnc(Sc4ccc5ncn(Cc6nc7ccccc7[nH]6)c(=O)c5c4Cl)cn3)CC2)[C@@H]1N [Example 37, 3-((1H-benzo[d]imidazol-2-yl)methyl)-6-((5-((3S,4S)-4-amino-3-methyl-2-oxa-8-azaspiro[4.5]decan-8-yl)pyrazin-2-yl)thio)-5-chloroquinazolin-4(3H)-one] | < 45 | < 3 |  |  |
| C[C@@H]1OCC2(CCN(c3cnc(Sc4cccc(S(N)(=O)=O)c4Cl)cn3)CC2)[C@@H]1N [Example 9, 3-((5-((3S,4S)-4-amino-3-methyl-2-oxa-8-azaspiro[4.5]decan-8-yl)pyrazin-2-yl)thio)-2-chlorobenzenesulfonamide] | < 45 | < 3 |  |  |
| C[C@@H]1OCC2(CCN(c3cnc(Sc4ccnc(C(=O)NCc5cccnc5)c4Cl)cn3)CC2)[C@@H]1N [Example 87, 4-((5-((3S,4S)-4-amino-3-methyl-2-oxa-8-azaspiro[4.5]decan-8-yl)pyrazin-2-yl)thio)-3-chloro-N-(pyridin-3-ylmethyl)picolinamide] | 45 to 1500 | 3 to 100 |  |  |
| COCCn1cnc2ccc(Sc3cnc(N4CCC5(CC4)Cc4scnc4[C@H]5N)c(C(N)=O)n3)c(Cl)c2c1=O [Example 172, (S)-3-(4-amino-4,6-dihydrospiro[cyclopenta[d]thiazole-5,4′-piperidin]-1′-yl)-6-((5-chloro-3-(2-methoxyethyl)-4-oxo-3,4-dihydroquinazolin-6-yl)thio)pyrazine-2-carboxamide] | < 45 | < 3 |  |  |

More lines, main results first:

| IC50 [1, 2] [nM] | IC50 (SHP2 (full length); read-out: IC50 (PTPase aS say)) [nM] | SMILES | IC50 ([1]; read-out: IC50 (p-ERK, nM)) [nM] | IC50 (SHP2 (full length); IC50 (PTPase aS say, nM)) [nM] |
| --- | --- | --- | --- | --- |
| < 45 | < 3 | COCCn1cnc2ccc(Sc3cnc(N4CCC5(CC4)Cc4scnc4[C@H]5N)c(CO)n3)c(Cl)c2c1=O [Example 170, (S)-6-((5-(4-amino-4,6-dihydrospiro[yclopenta[d]thiazole-5,4′-piperidin]-1′-yl)-6-(hydroxymethyl)pyrazin-2-yl)thio)-5-chloro-3-(2-methoxyethyl)quinazolin-4(3H)-one] |  |  |
| < 45 | < 3 | COCCn1cnc2ccc(Sc3cnc(N4CCC5(CC4)CO[C@@H](C)[C@H]5N)cn3)c(Cl)c2c1=O [Example 64, 6-((5-((3S,4S)-4-amino-3-methyl-2-oxa-8-azaspiro[4.5]decan-8-yl)pyrazin-2-yl)thio)-5-chloro-3-(2-methoxyethyl)quinazolin-4(3H)-one] |  |  |
| < 45 | < 3 | NC(=O)c1nc(Sc2ccc3ncn(CC4CCOCC4)c(=O)c3c2Cl)cnc1N1CCC2(CC1)Cc1ncsc1[C@H]2N [Example 174, (S)-3-(6-amino-4,6-dihydrospiro[cyclopenta[d]thiazole-5,4′-piperidin]-1′-yl)-6-((5-chloro-4-oxo-3-((tetrahydro-2H-pyran-4-yl)methyl)-3,4-dihydroquinazolin-6-yl)thio)pyrazine-2-carboxamide] |  |  |
| < 45 | < 3 | C[C@@H]1OCC2(CCN(c3cnc(Sc4ccc5ncn(CN6CCOCC6)c(=O)c5c4Cl)cn3)CC2)[C@@H]1N [Example 78, 6-((5-((3S,4S)-4-amino-3-methyl-2-oxa-8-azaspiro[4.5]decan-8-yl)pyrazin-2-yl)thio)-5-chloro-3-(morpholinomethyl)quinazolin-4(3H)-one] |  |  |
| < 45 | < 3 | CC(=O)NCCn1cnc2ccc(Sc3cnc(N4CCC5(CC4)CO[C@@H](C)[C@H]5N)cn3)c(Cl)c2c1=O [Example 115] |  |  |
| < 45 | < 3 | C[C@@H]1OCC2(CCN(c3cnc(Sc4ccc5ncn(CC6(F)CCOCC6)c(=O)c5c4Cl)cn3)CC2)[C@@H]1N [Example 79, 6-((5-((3S,4S)-4-amino-3-methyl-2-oxa-8-azaspiro[4.5]decan-8-yl)pyrazin-2-yl)thio)-5-chloro-3-((4-fluorotetrahydro-2H-pyran-4-yl)methyl)quinazolin-4(3H)-one] |  |  |
| < 45 | < 3 | COCCn1cnc2ccc(Sc3cnc(N4CCC5(CC4)Cc4ncccc4[C@H]5N)c(CO)n3)c(Cl)c2c1=O [Example 168, (S)-6-((5-(5-amino-5,7-dihydrospiro[cyclopenta[b]pyridine-6,4′-piperidin]-1′-yl)-6-(hydroxymethyl)pyrazin-2-yl)thio)-5-chloro-3-(2-methoxyethyl)quinazolin-4(3H)-one] |  |  |
| < 45 | < 3 | Cc1ccc(Cn2cnc3ccc(Sc4cnc(N5CCC6(CC5)CO[C@@H](C)[C@H]6N)cn4)c(Cl)c3c2=O)c(F)c1 [Example 69, 6-((5-((3S,4S)-4-amino-3-methyl-2-oxa-8-azaspiro[4.5]decan-8-yl)pyrazin-2-yl)thio)-5-chloro-3-(2-fluoro-4-methylbenzyl)quinazolin-4(3H)-one] |  |  |
